The test system of this experiment is BDF1 mice, M5076 sarcoma s.c., survival/tumor T/C. The experiment is described as follows: NCI In Vivo Anticancer Drug Screen. Data for tumor model Sarcoma M5076 (subcutaneous) in B6D2F1 (BDF1) mice. How it is done: The antitumor activity of compounds was measured in mice bearing transplantable tumors. Survival or tumor size were measured and the results are expressed as the measurement made in the treated group (T) divided by the measurement made in the vehicle treated control group (C). The tumor model used in this assay is Sarcoma M5076 (subcutaneous) in B6D2F1 (BDF1) mice

The mark [1] stands for this setting: endpoint: median survival time, dose: 50.0 mg/kg/injection, schedule: Q01DX009 (ip), vehicle: saline with Tween-80, higher = longer survival.
Where [2] appears, read: endpoint: median survival time, dose: 100.0 mg/kg/injection, schedule: Q01DX009 (ip), vehicle: saline with Tween-80, higher = longer survival.
The mark [3] stands for this setting: endpoint: median survival time, dose: 200.0 mg/kg/injection, schedule: Q01DX009 (ip), vehicle: saline with Tween-80, higher = longer survival.
The mark [4] stands for this setting: endpoint: median tumor weight (est.), dose: 50.0 mg/kg/injection, schedule: Q01DX009 (ip), vehicle: saline with Tween-80, higher = larger tumour.
[5] abbreviates: endpoint: median tumor weight (est.), dose: 100.0 mg/kg/injection, schedule: Q01DX009 (ip), vehicle: saline with Tween-80, higher = larger tumour.
The mark [6] stands for this setting: endpoint: median tumor weight (est.), dose: 200.0 mg/kg/injection, schedule: Q01DX009 (ip), vehicle: saline with Tween-80, higher = larger tumour.
Setting [7] is: endpoint: mean tumor weight, dose: 75.0 mg/kg/injection, schedule: Q02DX011 (ip), vehicle: saline, higher = larger tumour.
Setting [8] is: endpoint: mean tumor weight, dose: 150.0 mg/kg/injection, schedule: Q02DX011 (ip), vehicle: saline, higher = larger tumour.
The mark [9] stands for this setting: endpoint: mean tumor weight, dose: 300.0 mg/kg/injection, schedule: Q02DX011 (ip), vehicle: saline, higher = larger tumour.
Setting [10] is: endpoint: median tumor weight (est.), dose: 75.0 mg/kg/injection, schedule: Q02DX011 (ip), vehicle: saline, higher = larger tumour.
Setting [11] is: endpoint: median tumor weight (est.), dose: 150.0 mg/kg/injection, schedule: Q02DX011 (ip), vehicle: saline, higher = larger tumour.
The mark [12] stands for this setting: endpoint: median tumor weight (est.), dose: 300.0 mg/kg/injection, schedule: Q02DX011 (ip), vehicle: saline, higher = larger tumour.

Where “and” joins values, the source holds several entries; their conditions need not be identical. Equal entries are not always repeated. Records with an inconclusive call do not appear. Numbered stars: 1 amine (or outer) side, 2 acyl side, 3 side chain; on linkers, the order of the positions; unused ones are H or OH. Bridge positions count the residues as written; N and C are the ends. Square brackets hold non-standard residues; d marks the D form. Peptide text beside a SMILES is read from it. I, II: the chains in the order shown. * marks the point of attachment. ξ: configuration not given here. Quinaldoyl(3-OH,6-OMe) = COc1ccc2nc(C(=O)*)c(O)cc2c1; X1 = CCC(=O)OC1CC=NN([*:1])C1C(=O)[*:2]; X2 = CC(=O)OC1CC=NN([*:1])C1C(=O)[*:2]; ξNMeVal(3-OH) = CNC(C(=O)O)C(C)(C)O; Sar = CNCC(=O)O

For the compound `Cc1ccc(/C=C2\SC(=S)N(C3CC3)C2=O)cc1`, the T/C runs as follows: under setting [1], 103 % of control; under setting [2], 94 % of control; under setting [3], 98 % of control; under setting [4], 105 % of control; under setting [5], 80 % of control; under setting [6], 93 % of control.

In the case of `O=C[C@@H](CO)O[C@H](C=O)n1cnc2c(=O)[nH]cnc21`, the T/C by setting is: under setting [7], 93 % of control; under setting [8], 105 % of control; under setting [9], 54 % of control; under setting [10], 376 % of control; under setting [11], 385 % of control; under setting [12], 266 % of control.

`CCN1Cc2c(/C=C/c3ccccc3)nc3ccc(OC)cc3c2N(c2cccc(Cl)c2)C1`: the T/C under setting [1] is 99 % of control; the T/C under setting [2] is 99 % of control; the T/C under setting [3] was 105 % of control; the T/C under setting [4] was 60 % of control; the T/C under setting [5] is 105 % of control; the T/C under setting [6] was 73 % of control.

Regarding `Cc1ccc(SC(F)(F)C(F)C(F)(F)F)cc1` (stereo not given), the T/C under setting [1] is 98 % of control, the T/C under setting [2] is 112 % of control and the T/C under setting [3] is 100 % of control.

As for `O=C1CC(=O)N(C2CCCCC2)C(=O)N1c1ccccc1S(=O)(=O)Oc1ccccc1`, the T/C under setting [1] is 94 % of control; the T/C under setting [2] is 90 % of control; the T/C under setting [3] is 100 % of control; the T/C under setting [4] is 111 % of control; the T/C under setting [5] is 56 % of control; the T/C under setting [6] is 96 % of control.

Regarding `Nc1n[n+](-c2ccc(Cl)cc2)no1`, the T/C (endpoint: median survival time, dose: 25.0 mg/kg/injection, schedule: Q04DX003 (ip), vehicle: water, higher = longer survival) was 99 % of control and the T/C (endpoint: median survival time, dose: 50.0 mg/kg/injection, schedule: Q04DX003 (ip), vehicle: water, higher = longer survival) was 100 % of control.

For `CCC(=O)OC1CC=NN2C(=O)C(NC(=O)c3nc4ccc(OC)cc4cc3O)COC(=O)C(C(C)(C)O)N(C)C(=O)CN(C)C(=O)CNC(=O)C3C(OC(C)=O)CC=NN3C(=O)C(NC(=O)c3nc4ccc(OC)cc4cc3O)COC(=O)C(C(C)(C)O)N(C)C(=O)CN(C)C(=O)CNC(=O)C12` (stereo not given) (I: {Quinaldoyl(3-OH,6-OMe)}-S[X1]G[Sar][ξNMeVal(3-OH)] / II: {Quinaldoyl(3-OH,6-OMe)}-S[X2]G[Sar][ξNMeVal(3-OH)]; ester I:1-II:C, I:C-II:1; configuration not given here), the T/C is, setting by setting: (endpoint: median survival time, dose: 18.8 micrograms/kg/injection, schedule: Q01DX009 (ip), vehicle: Klucel (hydroxypropylcellulose) (HPC), higher = longer survival) 89 % of control; (endpoint: median tumor weight (est.), dose: 18.8 micrograms/kg/injection, schedule: Q01DX009 (ip), vehicle: DMSO, higher = larger tumour) 86 % of control.

As to `CS(=O)(=O)OCCCCOS(C)(=O)=O`, under “endpoint: mean tumor weight, dose: 15.0 mg/kg/injection, schedule: Q02DX011 (ip), vehicle: Klucel (hydroxypropylcellulose) (HPC), higher = larger tumour”, the T/C was 56 % of control.

For `CN(C)S(=O)(=O)c1ccc(CCCCc2ccc(N3C(N)=NC(N)=NC3(C)C)cc2Cl)c(Cl)c1`, the T/C (endpoint: median survival time, dose: 38.0 mg/kg/injection, schedule: Q01DX009 (ip), vehicle: saline with Tween-80, higher = longer survival) is 100 % of control.

With `CSC1SCC2C(=O)N(C)C(C(C)C)C(=O)OCC(NC(=O)c3cnc4ccccc4n3)C(=O)NC(C)C(=O)N(C)C1C(=O)N(C)C(C(C)C)C(=O)OCC(NC(=O)c1cnc3ccccc3n1)C(=O)NC(C)C(=O)N2C` (stereo not given), the T/C runs as follows: (endpoint: median survival time, dose: 0.06 mg/kg/injection, schedule: Q04DX003 (ip), vehicle: saline with Tween-80, higher = longer survival) 96 % of control; (endpoint: median survival time, dose: 0.12 mg/kg/injection, schedule: Q04DX003 (ip), vehicle: saline with Tween-80, higher = longer survival) 91 % of control.

Take `Cc1[nH]c(=O)[nH]c(=O)c1N(CCF)CCCl`: the T/C (endpoint: median survival time, dose: 4.0 mg/kg/injection, schedule: Q01DX009 (ip), vehicle: saline with Tween-80, higher = longer survival) was 104 % of control; the T/C (endpoint: median survival time, dose: 8.0 mg/kg/injection, schedule: Q01DX009 (ip), vehicle: saline with Tween-80, higher = longer survival) was 120 % of control; the T/C (endpoint: median tumor weight (est.), dose: 4.0 mg/kg/injection, schedule: Q01DX009 (ip), vehicle: saline with Tween-80, higher = larger tumour) is 101 % of control; the T/C (endpoint: median tumor weight (est.), dose: 8.0 mg/kg/injection, schedule: Q01DX009 (ip), vehicle: saline with Tween-80, higher = larger tumour) is 47 % of control and 57 % of control; the T/C (endpoint: median tumor weight (est.), dose: 16.0 mg/kg/injection, schedule: Q01DX009 (ip), vehicle: saline with Tween-80, higher = larger tumour) was 8 % of control and 17 % of control.

As for `O=c1[nH]c(=O)n(C2CC(O)C(CO)O2)cc1C(F)(F)F` (stereo not given), the T/C was 87 % of control (endpoint: mean tumor weight, dose: 37.5 mg/kg/injection, schedule: Q02DX011 (ip), vehicle: saline, higher = larger tumour); 24 % of control under setting [7]; 6 % of control under setting [8]; 70 % of control and 90 % of control (endpoint: median tumor weight (est.), dose: 37.5 mg/kg/injection, schedule: Q02DX011 (ip), vehicle: saline, higher = larger tumour); 4 % of control under setting [11].

As to `Cc1nc(N)nc(N)c1-c1ccc(Cl)c(Cl)c1`, under “endpoint: median survival time, dose: 1.5 mg/kg/injection, schedule: Q01DX009 (ip), vehicle: normal media, higher = longer survival”, the T/C is 105 % of control.

With `C[C@@]12C(=O)OC(=O)[C@]1(C)[C@H]1CC[C@@H]2O1`, the T/C reads like this: (endpoint: median survival time, dose: 0.1 mg/kg/injection, schedule: Q01DX009 (ip), vehicle: acetone, higher = longer survival) 94 % of control; (endpoint: median survival time, dose: 0.2 mg/kg/injection, schedule: Q01DX009 (ip), vehicle: acetone, higher = longer survival) 106 % of control; (endpoint: median survival time, dose: 0.4 mg/kg/injection, schedule: Q01DX009 (ip), vehicle: acetone, higher = longer survival) 101 % of control; (endpoint: median survival time, dose: 0.8 mg/kg/injection, schedule: Q01DX009 (ip), vehicle: acetone, higher = longer survival) 89 % of control; (endpoint: median tumor weight (est.), dose: 0.1 mg/kg/injection, schedule: Q01DX009 (ip), vehicle: acetone, higher = larger tumour) 117 % of control; (endpoint: median tumor weight (est.), dose: 0.2 mg/kg/injection, schedule: Q01DX009 (ip), vehicle: acetone, higher = larger tumour) 64 % of control. The T/C by setting is: (endpoint: median tumor weight (est.), dose: 0.4 mg/kg/injection, schedule: Q01DX009 (ip), vehicle: acetone, higher = larger tumour) 109 % of control; (endpoint: median tumor weight (est.), dose: 0.8 mg/kg/injection, schedule: Q01DX009 (ip), vehicle: acetone, higher = larger tumour) 90 % of control.

With `OC(CBr)C(O)C(O)C(O)CBr` (stereo not given), the T/C runs as follows: (endpoint: mean tumor weight, dose: 37.5 mg/kg/injection, schedule: Q02DX011 (ip), vehicle: Klucel (hydroxypropylcellulose) (HPC), higher = larger tumour) 66 % of control; (endpoint: mean tumor weight, dose: 75.0 mg/kg/injection, schedule: Q02DX011 (ip), vehicle: Klucel (hydroxypropylcellulose) (HPC), higher = larger tumour) 63 % of control; (endpoint: mean tumor weight, dose: 150.0 mg/kg/injection, schedule: Q02DX011 (ip), vehicle: Klucel (hydroxypropylcellulose) (HPC), higher = larger tumour) 52 % of control; (endpoint: median survival time, dose: 30.0 mg/kg/injection, schedule: Q04DX009 (ip), vehicle: saline with Tween-80, higher = longer survival) 108 % of control; (endpoint: median survival time, dose: 60.0 mg/kg/injection, schedule: Q02DX033 (ip), vehicle: saline with Tween-80, higher = longer survival) 112 % of control; (endpoint: median survival time, dose: 60.0 mg/kg/injection, schedule: Q04DX009 (ip), vehicle: saline with Tween-80, higher = longer survival) 108 % of control. The T/C (endpoint: median survival time, dose: 120.0 mg/kg/injection, schedule: Q02DX033 (ip), vehicle: saline with Tween-80, higher = longer survival) was 158 % of control; the T/C (endpoint: median survival time, dose: 120.0 mg/kg/injection, schedule: Q04DX009 (ip), vehicle: saline with Tween-80, higher = longer survival) was 112 % of control; the T/C (endpoint: median tumor weight (est.), dose: 37.5 mg/kg/injection, schedule: Q02DX011 (ip), vehicle: Klucel (hydroxypropylcellulose) (HPC), higher = larger tumour) was 75 % of control; the T/C (endpoint: median tumor weight (est.), dose: 75.0 mg/kg/injection, schedule: Q02DX011 (ip), vehicle: Klucel (hydroxypropylcellulose) (HPC), higher = larger tumour) was 90 % of control; the T/C (endpoint: median tumor weight (est.), dose: 150.0 mg/kg/injection, schedule: Q02DX011 (ip), vehicle: Klucel (hydroxypropylcellulose) (HPC), higher = larger tumour) was 72 % of control.

For `O=C1C=CN(C2OC(CO)C(O)C2O)C(=O)C1` (stereo not given), the T/C runs as follows: under setting [8], 42 % of control and 46 % of control; under setting [9], 44 % of control and 51 % of control; under setting [10], 78 % of control and 82 % of control; under setting [11], 43 % of control and 48 % of control; under setting [12], 38 % of control and 46 % of control.

The values are drawn from PubChem BioAssay AID288 (DTP/NCI, 2004).
